Patent US11844801B2, “Oral compositions of MK2 pathway inhibitor for treatment of immune conditions” (priority 2020, dated 2023)
Values joined by “and” are separate entries in the source; they are usually repeats but may differ in a detail not shown here. Identical values can stand only once. Like-named read-outs stand apart in the source and are kept apart here.

Key:
TNF-α = test: TLR2 ligand (Pam3) or LPS induced TNF-α in peripheral blood mononuclear cells; assay type: cell-based; conditions: 10-10,000 nM
Protocol: LPS or Pam3 were then added to the designated wells for a final concentration of 100 ng/mL for both (or medium for unstimulated control). After 30 min MSU was added to the designated wells for final concentration of 100 μg/mL (or medium for no-MSU control). After a 6-hour incubation, plates were centrifuged at 500×g for 5 min, and medium was collected from each well for assay. Released TNF-α was measured using Meso Scale Discovery technology, an ELISA-like format with capture and detection antibodies, but with a final readout using electrochemiluminescence.

IL-8 = test: Ex vivo LPS-stimulated IL-8 in blood of dosed healthy subjects, PK/PD inhibitory Emax model; set-up: species or system human
Protocol: Blood samples of 10 mL were collected for PD analysis. For the SAD cohorts, blood was collected before dosing and 1, 12, and 24 hours after dosing. For the MAD cohorts, on day 1 blood was collected before the morning dose and 4 and 12 hours after the morning dose (prior to the evening dose); on day 7, blood was collected before the morning dose and 4 and 12 hours after the morning dose.
Additional details of the assays for analyzing p-HSP27 and cytokines are included in the Supplementary Information.
Pharmacodynamics. PD data analysis was conducted using Microsoft Excel 2010 (Microsoft, Redmond, WA), Meso Scale Discovery Workbench® analysis software (Rockville, MD), and Phoenix WinNonlin, version 8.2.
Sample Preparation for Cytokine Analysis. For each sample, 180 μL aliquots were transferred into 7 wells of a round bottom 96 well tissue culture polystyrene low evaporation plate. […] No outer wells on the plates were used and all wells surrounding the samples contained 200 μL of phosphate buffered saline.
DMSO was added to all wells in groups ‘A’ and ‘C’ to a final concentration of 0.1% ([…] of a 2% DMSO solution in DMEM containing 10% FBS and 1% penicillin/streptomycin/glutamine). […] Samples were mixed gently for 30 seconds on a plate shaker using pin tools, then placed in an incubator at 37° C./5% CO2 for 1 hour.
Samples in groups ‘A’ and ‘B’ were stimulated with lipopolysaccharide at a final concentration of 100 ng/mL. A stock solution of lipopolysaccharide at 1 mg/mL in DMEM containing 10% FBS and 1% penicillin/streptomycin was diluted to […] in DMEM containing 10% FBS and 1% penicillin/streptomycin, and […] of this working solution was added per well of blood for all samples in groups ‘A’ and ‘B’. […] of DMEM containing 10% FBS only was added per well of blood for all samples in group ‘C’ (unstimulated samples). Samples were mixed gently for 30 seconds on a plate shaker using pin tools, then placed in an incubator at 37° C./5% CO2 for 5 hours.
Following the incubation, the plates were removed from the incubator and sealed with adhesive clear plate seals. The plates were then centrifuged for 10 minutes at 1800×g at room temperature. […] of plasma was removed from each well and transferred to a 96-well polypropylene round bottom master plate, which was then sealed and frozen at −80° C. until all samples from the respective cohort were generated. Once all samples from a given cohort were generated, the samples were analyzed for cytokine (TNF-α, IL-1b, IL-6, and IL-8) production using Meso Scale Discovery Technology.
Analysis of Cytokine Levels Using Meso Scale Discovery Technology. All lipopolysaccharide plasma samples were analyzed for cytokine production with a V-Plex Human Proinflammatory Panel II (4-Plex) Kit from Meso Scale Discovery (Rockville, MD). The master plates containing the plasma samples were thawed on ice, and a daughter plate consisting of a 25-fold dilution of each plasma sample (3 μL of plasma plus 72 μL of Meso Scale Discovery Diluent 2) was generated for each master plate. The diluted plasma samples from the daughter plates were used in the cytokine analysis. The Meso Scale Discovery 4-plex plates were washed 3 times with 150 μL/well of wash buffer (1×KPL phosphate buffered saline with Tween 20 from SeraCare [Milford, MA]). Prepared calibrators and the samples from the daughter plates were added to the washed Meso Scale Discovery 4-plex plates at 50 μL/well. The 4-plex plates were sealed and shaken overnight at 4° C.
After the overnight incubation, the samples were removed by decanting. The 4-plex plates were then washed 3 times with 150 μL/well of wash buffer. […]

IL-6 = test: LPS stimulated IL-6 production in human whole blood; assay type: cell-based
Protocol: Compounds were serially diluted in 100% DMSO (Sigma-Aldrich, D2650) followed by a 50× dilution into DMEM/10% FBS (Gibco, 11965/26140). Vehicle consisted of DMSO at a final assay concentration of 0.1%. Pin tools (V&P Scientific, Inc., VP246) were placed in the wells and the plate was placed at 37° C. with 5% CO2, with gently shaking for five minutes, then pin tools were removed and saved. […] Pin tools were placed in the wells in the same orientation as the previous step and gently shook for five minutes at 37° C. with 5% CO2, then removed. […] The plasma was harvested and assayed for TNF-α, IL-1β, and IL-6 using Meso Scale Discovery Technology V-plex human cytokine kits according to the kit protocol. The kit plates were read using an MSD Sector S 6000 instrument. Calculations to establish cytokine calibration curves and to determine analyte concentrations in the samples were carried out using the MSD DISCOVERY WORKBENCH® analysis software.

Cc1cnc(-c2ccnc(C(C)(C)O)n2)cc1-n1c(C)cc(OCc2ncc(F)cc2F)c(Cl)c1=O (single isomer, unassigned) [ATI-450, 3-chloro-4-((3,5-difluoropyridin-2-yl)methoxy)-2′-(2-(2-hydroxypropan-2-yl)pyrimidin-4-yl)-5′,6-dimethyl-2H-[1,4′-bipyridin]-2-one]
TLR2 ligand induced TNF-α production (TNF-α): dose dependently inhibits | Cmax (Multiple of IC80) (IL-8; 50 mg BID, day 7): 5.6x | Ctrough (Multiple of IC80) (IL-8; 50 mg BID, day 7): 2.3x | IC80 (IL-8; Homo sapiens, calculated from IC50, combined SAD and MAD data, read-out: IC80, plasma concentration at 80% of maximal inhibition): 0.0388 µg/mL | IC50 (IL-8; Homo sapiens, inhibitory Emax model, combined SAD and MAD data, read-out: IC50, plasma concentration at half maximal inhibition): 0.0097 µg/mL | IC80, plasma concentration at 80% of maximal inhibition (IL-8; calculated from IC50, combined SAD and MAD data): 0.0388 µg/mL | Imax, maximum percent inhibition (IL-8; inhibitory Emax model): 57% and 57.1% | IC50 (IL-6; Human Whole Blood, LPS, 100 ng/mL, 4 or 24 hr, read-out: IC50, IL-6): 135 ± 97 nM | IC50 (IL-6; human whole blood, LPS 100 ng/mL, read-out: IC50, LPS-stimulated IL-6): 10 to 100 nM
